For one compound, EC50 results are on record in publication PMC9697614, “Rufinamide, a Triazole-Derived Antiepileptic Drug, Stimulates Ca^2+-Activated K^+ Currents While Inhibiting Voltage-Gated Na^+ Currents” (International Journal of Molecular Sciences, 2022).

As a reminder, the EC50 is the concentration needed to bring the measured effect to its halfway point.

The target in the test is T1, large-conductance Ca2+-activated K+ channel (BKCa, KCa1.1, KCNMA1, Slo1) (Rattus norvegicus, UniProt Q62976).
T1 construct: native channel in pituitary GH3 cells
Kind of test: patch clamp: inside-out single-channel recordings (RFM on cytosolic face) and whole-cell IK(Ca) concentration-response. It counts as cell-based. In general terms: Patch clamp records ionic current or voltage across a cell membrane.

SMILES strings stand for the structures.

T1 sequence (Q62976 whole entry): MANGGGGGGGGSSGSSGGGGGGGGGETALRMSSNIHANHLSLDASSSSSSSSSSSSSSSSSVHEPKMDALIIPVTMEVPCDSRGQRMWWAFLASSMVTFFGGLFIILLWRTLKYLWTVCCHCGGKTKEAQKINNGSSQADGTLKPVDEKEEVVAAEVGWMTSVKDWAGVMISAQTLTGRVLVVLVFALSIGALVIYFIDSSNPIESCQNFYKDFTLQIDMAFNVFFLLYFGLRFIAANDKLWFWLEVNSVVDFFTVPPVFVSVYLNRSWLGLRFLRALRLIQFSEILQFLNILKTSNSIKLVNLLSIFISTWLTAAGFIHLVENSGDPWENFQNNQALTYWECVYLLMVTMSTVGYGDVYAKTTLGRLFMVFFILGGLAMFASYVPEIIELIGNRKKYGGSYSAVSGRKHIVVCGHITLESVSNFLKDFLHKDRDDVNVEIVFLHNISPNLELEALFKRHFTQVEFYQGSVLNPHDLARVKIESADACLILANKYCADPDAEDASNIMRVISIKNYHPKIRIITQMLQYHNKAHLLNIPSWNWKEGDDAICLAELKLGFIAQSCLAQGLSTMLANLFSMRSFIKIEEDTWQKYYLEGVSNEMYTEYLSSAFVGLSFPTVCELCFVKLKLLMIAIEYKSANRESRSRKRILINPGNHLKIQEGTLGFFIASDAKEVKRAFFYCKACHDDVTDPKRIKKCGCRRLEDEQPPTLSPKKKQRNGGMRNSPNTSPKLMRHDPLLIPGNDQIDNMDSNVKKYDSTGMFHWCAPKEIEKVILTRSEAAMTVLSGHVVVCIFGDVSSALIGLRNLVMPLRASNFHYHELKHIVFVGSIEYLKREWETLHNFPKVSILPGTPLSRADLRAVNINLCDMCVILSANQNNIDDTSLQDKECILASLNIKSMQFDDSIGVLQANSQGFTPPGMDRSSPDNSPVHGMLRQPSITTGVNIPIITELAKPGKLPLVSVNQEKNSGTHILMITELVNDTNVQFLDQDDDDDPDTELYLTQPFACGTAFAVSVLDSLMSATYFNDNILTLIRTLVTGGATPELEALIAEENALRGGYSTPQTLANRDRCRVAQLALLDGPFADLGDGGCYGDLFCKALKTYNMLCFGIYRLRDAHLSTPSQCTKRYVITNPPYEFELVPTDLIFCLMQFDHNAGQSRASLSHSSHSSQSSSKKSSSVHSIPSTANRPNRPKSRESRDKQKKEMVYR

With `NC(=O)c1cn(Cc2c(F)cccc2F)nn1` [RFM, 1-((2,6-difluorophenyl)methyl)-1H-1,2,3-triazole-4carboxamide], the EC50 worked out at 3.9 µM. That is a single-digit micromolar value.
